Measurements reported in patent publication US5798092A, “Derivatized DTPA complexes pharmaceutical agents containing these compounds, their use, and processes for their production” (Schering Aktiengesellschaft, priority 1989, dated 1998).

Assays:
[1] = T1 relaxation (relaxivity) in plasma; format: physicochemical
Text: (§1) T1 relaxation (1/mmol·sec) is
(§2) The T1 relaxation (1/mmol·sec) is
(§3) The T1 relaxation (1/mmol·sec) amounts to
(§4) The T1 relaxation (1mmol·sec) is […]

[2] = T1 relaxation (relaxivity) in water; format: physicochemical
Text: as §1, §2, §3, §4

rats [3] = details: at this point in time after administration; no own data shown; cited from earlier work
rats [4] = experiment: in vivo NMR imaging in rat with Brown Pearce tumor (spin echo, 2 tesla); design: species or system rat (male hairless, Lew/Mol); details: 0.06 mmol/kg i.v.
Text: Spin echo scans were made with the NMR tomograph (CSI 2 T) at 2 tesla (TR time of 400 ms and TE time of 20 ms).
The contrast medium was administrated intravenously into a caudal vein of a male hairless rat (Lew/Mol) weighing 190 g, in a dose of 0.06 mmol/kg.

rats [5] = experiment: in vivo MRI in rats, T1-weighted spin echo, liver/stomach/osteogenic sarcoma; design: species or system rat (female, Lew/Mol); details: 0.1 mmol Gd/kg i.v.; for enhancement of the stomach: ranking among the three compounds
Text: The test animals were female rats of the strain Lew/Mol weighing 160-180 g. Prior to imaging, the animals were anesthetized ("Rompun"+"Ketavet") and provided with a catheter in the caudel vein to administer the contrast medium. Imaging took place in an MRI experimental device by General Electric (field strength 2 tesla). First of all, the images (7, 9, 11) were made without contrast medium with a T1 -weighted spin echo sequence (TR=400 msec, TE=20 msec, axial section plane, layer thickness 3 mm). The liver appears in each case with the normal signal intensity; the stomach is darker in tendency than the liver. […] This is due to feed residues, the feed containing manganese in relatively high concentrations (at the time of the test, the animals had been fasting for 6 hours). Animal 3 had been implanted with an osteogenic sarcoma three weeks previously; this sarcoma was of equal contrast in the blank image and could not be defined. The administration of contrast medium took place via the venous catheter with a dose of 0.1 mmol Gd/kg (concentration of the solutions 0.05 mmol Gd/ml in 0.9% NaCl) for all 3 compounds.

For “Gadolinium Complex of 3,6,9-Triaza-3,6,9-tris-(carboxymethyl)-5-(4-methoxybenzyl)undecanedioic Acid [Example 2(c)]”, the T1 relaxation [1] was 6.61 ± 0.18 mmol⁻¹ s⁻¹ and the T1 relaxation [2] was 4.17 ± 0.14 mmol⁻¹ s⁻¹.
For `CNC[C@H](O)[C@@H](O)[C@H](O)[C@H](O)CO.CNC[C@H](O)[C@@H](O)[C@H](O)[C@H](O)CO.O=C([O-])CN(CCN(CC(=O)[O-])CC(=O)O)CCN(CC(=O)[O-])CC(=O)O.[Gd+3]` [Magnevist, dimeglumine salt of Gd DTPA [gadolinium(III)complex of diethylenetriaminepentaacetic acid]], the “enhancement of the liver (comparison)” value (rats [3]) is listed as “cannot be observed”.
With `COc1ccc(CC(CN(CCN(CC(=O)[O-])CC(=O)[O-])CC(=O)[O-])N(CC(=O)[O-])CC(=O)[O-])cc1.[Gd+3].[Na+].[Na+]` (centres unmarked) [Example 1(c) disodium salt, Gadolinium Complex of 3,6,9-Triaza-3,6,9-tris-(carboxymethyl)-4-(4-methoxybenzyl)undecanedioic Acid] the “increase in contrast in the stomach” value (rats [4]; 45 minutes after injection) was “strong increase in contrast”, the “contrasting of the intestine” value (rats [4]; 60 minutes after injection) was “contrasting of the intestine can likewise be observed” and the “contrasting of the renal pelvis” value (rats [4]; 60 minutes after injection) was “striking”. The “visualization of the stomach” value (rats [4]; 60 minutes after injection) was “good visualization”, the “visualization of the urinary bladder” value (rats [4]; 60 minutes after injection) was “good visualization” and the “visualization of the tumor” value (rats [4]; 60 minutes after injection, Brown Pearce tumor in the thigh) was “good visualization”. The “contrasting of the renal pelvis” value (rats [4]; 65 minutes after injection, somewhat different layer) was “even more improved”, the “contrast enhancement in the zone of the liver” value (rats [4]; 180 minutes after injection, axial scan) was “contrast enhancement is likewise clearly recognizable” and the “contrast enhancement in the urinary bladder” value (rats [4]; one minute after administration) was “first enhancement is already apparent”. The T1 relaxation [1] was 6.89 ± 0.17 mmol⁻¹ s⁻¹ and the T1 relaxation [2] was 4.54 ± 0.13 mmol⁻¹ s⁻¹.
In the case of `CCOc1ccc(CC(CN(CCN(CC(=O)[O-])CC(=O)[O-])CC(=O)[O-])N(CC(=O)[O-])CC(=O)[O-])cc1.[Gd+3].[Na+].[Na+]` (centres unmarked) [Example 8(c), Disodium Salt of the Gadolinium Complex of 3,6,9-Triaza-3,6,9-tris(carboxymethyl)-4-(4-ethoxybenzyl)undecanedioic Acid], the T1 relaxation [1] is reported as 8.69 ± 0.53 mmol⁻¹ s⁻¹, the T1 relaxation [2] is reported as 5.33 ± 0.13 mmol⁻¹ s⁻¹ and the “enhancement of the liver” value (rats [5]; after 90 minutes) is reported as “marked enhancement of the liver”. The “enhancement of the stomach” value (rats [5]) was “least”.
With “Gadolinium Complex of 3,6,9-Triaza-3,6,9-tris-(carboxymethyl)-4-benzyloxymethylundecanedioic Acid [Example 5(c)]” the T1 relaxation [1] was 6.31 ± 0.15 mmol⁻¹ s⁻¹ and the T1 relaxation [2] was 4.39 ± 0.12 mmol⁻¹ s⁻¹.
“Gadolinium Complex of 3,6,9-Triaza-3,6,9-tris-(carboxymethyl)-4-[4-(4-methoxybenzyloxy)benzyl]-undecanedioic Acid [Example 3(c)]” gave a T1 relaxation [1] of 6.99 ± 0.13 mmol⁻¹ s⁻¹ and a T1 relaxation [2] of 4.23 ± 0.16 mmol⁻¹ s⁻¹.
For `O=C([O-])CN(CCN(CC(=O)[O-])CC(Cc1ccc(OCc2ccccc2)cc1)N(CC(=O)[O-])CC(=O)[O-])CC(=O)[O-].[Gd+3].[Na+].[Na+]` (centres unmarked) [Example 10(c), Disodium Salt of the Gadolinium Complex of 3,6,9-Triaza-3,6,9-tris(carboxymethyl)-4-(4-benzyloxybenzyl)undecanedioic Acid], the T1 relaxation [1] was 16.35 ± 1.01 mmol⁻¹ s⁻¹, the T1 relaxation [2] was 5.81 ± 0.11 mmol⁻¹ s⁻¹ and the “enhancement of the liver” value (rats [5]; after 60 minutes) was “marked enhancement of the liver”. The “visibility of the tumor” value (rats [5]; animal 3, osteogenic sarcoma implanted three weeks previously, 60 minutes) was “clearly visible”, the “absorption of the contrast medium by the tumor” value (rats [5]; animal 3, osteogenic sarcoma, 60 minutes) was “not absorbed the contrast medium at all, or only to a lesser proportion” and the “enhancement of the stomach” value (rats [5]) was “most strongly”.
“Gadolinium Complex of 3,6,9-Triaza-3,6,9-tris-(carboxymethyl)-4-benzylundecanedioic Acid [Example 4(d)]” showed a T1 relaxation [1] of 6.89 ± 0.17 mmol⁻¹ s⁻¹ and a T1 relaxation [2] of 4.54 ± 0.13 mmol⁻¹ s⁻¹.
With `CCCCOc1ccc(CC(CN(CCN(CC(=O)[O-])CC(=O)[O-])CC(=O)[O-])N(CC(=O)[O-])CC(=O)[O-])cc1.[Gd+3].[Na+].[Na+]` (centres unmarked) [Example 9(c), Disodium Salt of the Gadolinium Complex of 3,6,9-Triaza-3,6,9-tris(carboxymethyl)-4-(4-butoxybenzyl)undecanedioic Acid] the T1 relaxation ([1]; unit printed without slash) was 14.20±0.98 1mmol·sec, the T1 relaxation ([2]; unit printed without slash) was 5.80±0.26 1mmol·sec and the “enhancement of the liver” value (rats [5]; after 60 minutes) was “marked enhancement of the liver”.
“Gadolinium Complex of 3,6,9-Triaza-3,6,9-tris-(carboxymethyl)-4-(4-carboxymethoxybenzyl)-undecanedioic Acid [Example 6(c)]” showed a T1 relaxation [1] of 7.10 ± 0.08 mmol⁻¹ s⁻¹ and a T1 relaxation [2] of 5.00 ± 0.01 mmol⁻¹ s⁻¹.
